Results taken from publication PMC6979384, “Characterization of the plant homeodomain (PHD) reader family for their histone tail interactions” (Epigenetics & Chromatin, 2020).

Assays:
Assay in all cases: Histone peptide microarray
Assay type in all cases: binding, human
AIRE (PP) = conditions: AIRE (PP), GST-tagged; arrays performed twice, n of 4
Description: (§1) To more comprehensively define the histone interactions of the 31 PHD readers identified from the domain microarray analyses, we probed each on an alternate microarray platform containing a library of 293 synthetic histone peptides with single or combinatorial PTMs (Additional file 2: Figure S4 and Additional file 3: Table S2).
(§2) The 31 GST-tagged PHD readers identified in the PHD finger domain array were expressed and purified as previously. Histone peptide arrays and peptide pulldown assays were conducted as recently described (specifically, the optimized protocol from Petell et al. for the former).
(§3) Supplementary file 13072_2020_328_MOESM3_ESM.xlsx: Additional file 3: Table S2. […] Excel Tab Peptide List is a compiled list of the entire 293 histone peptide library with amino acid sequence ranges. […] Each number corresponds to the peptide number designated in Peptide List. Excel Tab Average Signals is a compiled set of binding data: chromatin reader at 0.5 μM vs. entire 293 peptide library. Data is presented as the average and standard deviation of 4 replicates. The average signals are colored to indicate signal intensity with green being strong and white being weak/low. […] Key: red= stronger relative binding; blue = weaker relative binding. Excel Tab Array info summary is a table summarizing the domains, sequence coverage, array signal range, and noise for each of the GST-tagged readers assayed on the peptide microarrays.

BAZ2B = conditions: BAZ2B, GST-tagged; arrays performed twice, n of 4
Description: as §1, §2, §3

BPTF (PB) = conditions: BPTF (PB), GST-tagged; arrays performed twice, n of 4
Description: as §1, §2, §3

CHD4 (PPCC) = conditions: CHD4 (PPCC), GST-tagged; arrays performed twice, n of 4
Description: as §1, §2, §3

CHD5 (PCC) = conditions: CHD5 (PCC), GST-tagged; arrays performed twice, n of 4
Description: as §1, §2, §3

CHD5 (PPCC) = conditions: CHD5 (PPCC), GST-tagged; arrays performed twice, n of 4
Description: as §1, §2, §3

DIDO1 = conditions: DIDO1, GST-tagged; arrays performed twice, n of 4
Description: as §1, §2, §3

DPF2 (PPC2W2) = conditions: DPF2 (PPC2W2), GST-tagged; arrays performed twice, n of 4
Description: as §1, §2, §3

ING1 = conditions: ING1, GST-tagged; arrays performed twice, n of 4
Description: as §1, §2, §3

ING2 = conditions: ING2, GST-tagged; arrays performed twice, n of 4
Description: as §1, §2, §3

ING3 = conditions: ING3, GST-tagged; arrays performed twice, n of 4
Description: as §1, §2, §3

ING4 = conditions: ING4, GST-tagged; arrays performed twice, n of 4
Description: as §1, §2, §3

ING5 = conditions: ING5, GST-tagged; arrays performed twice, n of 4
Description: as §1, §2, §3

KDM4C (TTP) = conditions: KDM4C (TTP), GST-tagged; arrays performed twice, n of 4
Description: as §1, §2, §3

KDM5A (1) = conditions: KDM5A (1), GST-tagged; arrays performed twice, n of 4
Description: as §1, §2, §3

KDM5A (3) = conditions: KDM5A (3), GST-tagged; arrays performed twice, n of 4
Description: as §1, §2, §3

KDM5B (3) = conditions: KDM5B (3), GST-tagged; arrays performed twice, n of 4
Description: as §1, §2, §3

KDM7A = conditions: KDM7A, GST-tagged; arrays performed twice, n of 4
Description: as §1, §2, §3

MLL5 = conditions: MLL5, GST-tagged; arrays performed twice, n of 4
Description: as §1, §2, §3

MORC3 (CW) = conditions: MORC3 (CW), GST-tagged; arrays performed twice, n of 4
Description: as §1, §2, §3

PHF13 = conditions: PHF13, GST-tagged; arrays performed twice, n of 4
Description: as §1, §2, §3

PHF21A = conditions: PHF21A, GST-tagged; arrays performed twice, n of 4
Description: as §1, §2, §3

PHF23 = conditions: PHF23, GST-tagged; arrays performed twice, n of 4
Description: as §1, §2, §3

PHF2 = conditions: PHF2, GST-tagged; arrays performed twice, n of 4
Description: as §1, §2, §3

PHF8 = conditions: PHF8, GST-tagged; arrays performed twice, n of 4
Description: as §1, §2, §3

PHRF1 (RP) = conditions: PHRF1 (RP), GST-tagged; arrays performed twice, n of 4
Description: as §1, §2, §3

RAG2 = conditions: RAG2, GST-tagged; arrays performed twice, n of 4
Description: as §1, §2, §3

SP140L = conditions: SP140L, GST-tagged; arrays performed twice, n of 4
Description: as §1, §2, §3

TAF3 = conditions: TAF3, GST-tagged; arrays performed twice, n of 4
Description: as §1, §2, §3

TRIM66 (PB) = conditions: TRIM66 (PB), GST-tagged; arrays performed twice, n of 4
Description: as §1, §2, §3

| Substance | Array Heatmap value (peptide array binding signal) (AIRE (PP)) | Array Heatmap value (peptide array binding signal) (BAZ2B) | Array Heatmap value (peptide array binding signal) (BPTF (PB)) | Array Heatmap value (peptide array binding signal) (CHD4 (PPCC)) | Array Heatmap value (peptide array binding signal) (CHD5 (PCC)) | Array Heatmap value (peptide array binding signal) (CHD5 (PPCC)) | Array Heatmap value (peptide array binding signal) (DIDO1) | Array Heatmap value (peptide array binding signal) (DPF2 (PPC2W2)) | Array Heatmap value (peptide array binding signal) (ING1) | Array Heatmap value (peptide array binding signal) (ING2) | Array Heatmap value (peptide array binding signal) (ING3) | Array Heatmap value (peptide array binding signal) (ING4) | Array Heatmap value (peptide array binding signal) (ING5) | Array Heatmap value (peptide array binding signal) (KDM4C (TTP)) | Array Heatmap value (peptide array binding signal) (KDM5A (1)) | Array Heatmap value (peptide array binding signal) (KDM5A (3)) | Array Heatmap value (peptide array binding signal) (KDM5B (3)) | Array Heatmap value (peptide array binding signal) (KDM7A) | Array Heatmap value (peptide array binding signal) (MLL5) | Array Heatmap value (peptide array binding signal) (MORC3 (CW)) | also measured |
| --- | --- | --- | --- | --- | --- | --- | --- | --- | --- | --- | --- | --- | --- | --- | --- | --- | --- | --- | --- | --- | --- |
| H4K8ac + K12ac: H4 1-23 | 0.5703 | 0.5085 | 0.3598 | 0.5759 | 0.8072 | 0.5916 | 0.6459 | 0.6914 | 0.5248 | 0.5831 | 0.4849 | 0.4864 | 0.3813 | 0.5553 | 0.4987 | 0.4276 | 0.5016 | 0.4671 | 0.5505 | 0.3777 | Array Heatmap value (peptide array binding signal) (PHF13): 0.6286; Array Heatmap value (peptide array binding signal) (PHF21A): 0.4992; Array Heatmap value (peptide array binding signal) (PHF23): 0.5272; Array Heatmap value (peptide array binding signal) (PHF2): 0.4562; Array Heatmap value (peptide array binding signal) (PHF8): 0.3425; Array Heatmap value (peptide array binding signal) (PHRF1 (RP)): 0.4073; Array Heatmap value (peptide array binding signal) (RAG2): 0.2531; Array Heatmap value (peptide array binding signal) (SP140L): 0.3826; Array Heatmap value (peptide array binding signal) (TAF3): 0.2763; Array Heatmap value (peptide array binding signal) (TRIM66 (PB)): 0.5841 |
| H4K8ac + K20ac: H4 1-23 | 0.5419 | 0.4848 | 0.3587 | 0.5794 | 0.8384 | 0.5684 | 0.6199 | 0.6725 | 0.5081 | 0.5825 | 0.4639 | 0.4785 | 0.3709 | 0.5368 | 0.512 | 0.4422 | 0.4924 | 0.4148 | 0.5364 | 0.3621 | Array Heatmap value (peptide array binding signal) (PHF13): 0.5975; Array Heatmap value (peptide array binding signal) (PHF21A): 0.4807; Array Heatmap value (peptide array binding signal) (PHF23): 0.5223; Array Heatmap value (peptide array binding signal) (PHF2): 0.4411; Array Heatmap value (peptide array binding signal) (PHF8): 0.3864; Array Heatmap value (peptide array binding signal) (PHRF1 (RP)): 0.4283; Array Heatmap value (peptide array binding signal) (RAG2): 0.2452; Array Heatmap value (peptide array binding signal) (SP140L): 0.3646; Array Heatmap value (peptide array binding signal) (TAF3): 0.2852; Array Heatmap value (peptide array binding signal) (TRIM66 (PB)): 0.5664 |
| H4K16ac + K20ac: H4 1-23 | 0.5176 | 0.4551 | 0.3565 | 0.5676 | 0.7957 | 0.5492 | 0.6429 | 0.6637 | 0.529 | 0.5955 | 0.4609 | 0.47 | 0.3611 | 0.4892 | 0.4687 | 0.425 | 0.4989 | 0.3784 | 0.5457 | 0.3738 | Array Heatmap value (peptide array binding signal) (PHF13): 0.6126; Array Heatmap value (peptide array binding signal) (PHF21A): 0.4767; Array Heatmap value (peptide array binding signal) (PHF23): 0.5182; Array Heatmap value (peptide array binding signal) (PHF2): 0.4717; Array Heatmap value (peptide array binding signal) (PHF8): 0.3492; Array Heatmap value (peptide array binding signal) (PHRF1 (RP)): 0.4351; Array Heatmap value (peptide array binding signal) (RAG2): 0.2369; Array Heatmap value (peptide array binding signal) (SP140L): 0.3563; Array Heatmap value (peptide array binding signal) (TAF3): 0.2987; Array Heatmap value (peptide array binding signal) (TRIM66 (PB)): 0.6284 |
| H4S1p + K5ac + K8ac + K12ac + K16ac: H4 1-23 | 0.484 | 0.5342 | 0.3984 | 0.615 | 0.835 | 0.6446 | 0.7637 | 0.7325 | 0.5918 | 0.6187 | 0.5554 | 0.5155 | 0.4228 | 0.5634 | 0.5302 | 0.4753 | 0.545 | 0.3878 | 0.5849 | 0.4113 | Array Heatmap value (peptide array binding signal) (PHF13): 0.677; Array Heatmap value (peptide array binding signal) (PHF21A): 0.5171; Array Heatmap value (peptide array binding signal) (PHF23): 0.5865; Array Heatmap value (peptide array binding signal) (PHF2): 0.5298; Array Heatmap value (peptide array binding signal) (PHF8): 0.3922; Array Heatmap value (peptide array binding signal) (PHRF1 (RP)): 0.5208; Array Heatmap value (peptide array binding signal) (RAG2): 0.2856; Array Heatmap value (peptide array binding signal) (SP140L): 0.3938; Array Heatmap value (peptide array binding signal) (TAF3): 0.311; Array Heatmap value (peptide array binding signal) (TRIM66 (PB)): 0.6554 |
